Test results as given in ChEMBL document CHEMBL5053558, “Novel Indole Compounds as TEAD Inhibitors for Treating Cancer” (ACS Med Chem Lett, 2021).

Assay: Inhibition of TEAD in human tumour cells assessed as YAP1/TAZ-TEAD modulation incubated for 48 hrs by Bright-Glo luciferase assay
Assay type: cell-based
Settings: Tumor Cell line

| SMILES | IC50 |
| --- | --- |
| C=CC(=O)Nc1ccc2c(c1)c(C)cn2-c1ccc(C(F)(F)F)cc1 | 9 nM |
| C=CC(=O)Nc1ccc2c(c1)c(COC)cn2-c1ccc(C(F)(F)F)cc1 | 15 nM |
| C=CC(=O)Nc1ccc2c(ccn2-c2ccc(C(F)(F)F)cc2)c1 | 8 nM |
| C=CC(=O)Nc1cc2ccn(Cc3cccc(C(F)(F)F)c3)c2cc1F | 18 nM |

Continued by falling IC50, values first:

| IC50 | SMILES |
| --- | --- |
| 20 nM | C=CC(=O)Nc1ccc2c(ccn2Cc2ccc(-c3cccc(C(F)(F)F)c3)cc2)c1 |
| 12 nM | C=CC(=O)Nc1ccc2c(c1)cc(C)n2-c1ccc(C(F)(F)F)cc1 |
